# Assays:
# morningglory [1] = assay: Test A preemergence; type: in vivo, Ipomoea spp.; settings: 0 to 100 scale
# Method in brief: (§1)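 Visual injury rating, 0–100 (0 no effect, 100 complete control), vs untreated controls ~10 days after treatment in greenhouse. Pre: directed soil spray on seeded loam/sand. Post: 2–10 cm plants, 1–2 leaf stage. Formulation: non-phytotoxic solvent mix + surfactant.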
# chickweed = assay: Test C postemergence; type: in vivo, Stellaria media; settings: for Chickweed plant response rating: scale 0 to 100
# From the text: (§2) Seeds of plant species selected from blackgrass (Alopecurus myosuroides), ryegrass, Italian (Italian ryegrass, Lolium multiflorum), wheat (winter wheat, Triticum aestivum), galium (catchweed bedstraw, Galium aparine), corn (Zea mays), crabgrass, large (large crabgrass, Digitaria sanguinalis), foxtail, giant (giant foxtail, Setaria faberii), johnsongrass (Sorghum halepense), lambsquarters (Chenopodium album), morningglory (Ipomoea coccinea), nutsedge, yellow (yellow nutsedge, Cyperus esculentus), pigweed (redroot pigweed, Amaranthus retroflexus), ragweed (common ragweed, Ambrosia elation), soybean (Glycine max), barnyardgrass (Echinochloa crus-galli), oilseed rape (Brassica napus), waterhemp (common waterhemp, Amaranthus rudis), oat, wild (wild oat, Avena fatua), kochia (Kochia scoparia), Surinam grass (Brachiaria decumbens), foxtail, green (green foxtail, Setaria viridis), goosegrass (Eleusine indica), bromegrass, downy (downy bromegrass, Bromus tectorum), nightshade (eastern black nightshade, Solanum ptycanthum), cocklebur (common cocklebur, Xanthium strumarium), cupgrass, woolly (woolly cupgrass, Eriochloa villosa), bermudagrass (Cynodon dactylon), sunflower, (common oilseed sunflower, Helianthus annuus), Russian thistle (Salsola kali), and velvetleaf (Abutilon theophrasti) were planted into a blend of loam soil and sand and treated preemergence with test chemicals formulated in a non-phytotoxic solvent mixture which included a surfactant.
# (§3) At the same time, plants selected from these crop and weed species and also chickweed (common chickweed, Stellaria media), canarygrass (littleseed canarygrass, Phalaris minor), and deadnettle (henbit deadnettle, Lamium amplexicaule), were planted in pots containing Redi-Earth® planting medium (Scotts Company, 14111 Scottslawn Road, Marysville, Ohio 43041) comprising spaghnum peat moss, vermiculite, wetting agent and starter nutrients and treated with postemergence applications of test chemicals formulated in the same manner. Plants ranged in height from 2 to 18 cm (1- to 4-leaf stage) for postemergence treatments. Treated plants and controls were maintained in a greenhouse for 13 to 15 days, after which time all species were compared to controls and visually evaluated. Plant response ratings, summarized in Table C, are based on a scale of 0 to 100 where 0 is no effect and 100 is complete control. A dash (-) response means no test result.
# pigweed = assay: Test C postemergence; type: in vivo, Amaranthus retroflexus; settings: for Pigweed plant response rating: scale 0 to 100
# From the text: as §2, §3
# foxtail, giant = assay: Test C postemergence; type: in vivo, Setaria faberii; settings: for Foxtail, Giant plant response rating: scale 0 to 100
# From the text: as §2, §3
# morningglory [2] = assay: Test C postemergence; type: in vivo, Ipomoea coccinea; settings: for Morningglory plant response rating: scale 0 to 100
# From the text: as §2, §3
# ragweed = assay: Test C postemergence; type: in vivo, Ambrosia elation; settings: postemergence
# From the text: as §2, §3
# corn = assay: Test A postemergence; type: in vivo, Zea mays
# Method in brief: as §1
# wheat = assay: Test C postemergence; type: in vivo, Triticum aestivum; settings: postemergence; for Wheat plant response rating: 62 g ai/ha, scale 0 to 100
# From the text: as §2, §3
# oat, wild = assay: Test C postemergence; type: in vivo, Avena fatua; settings: for Oat, Wild plant response rating: scale 0 to 100
# From the text: as §2, §3
# ryegrass, Italian = assay: Test C preemergence; type: in vivo, Lolium multiflorum
# From the text: as §2, §3
# crabgrass, large = assay: Test C preemergence; type: in vivo, Digitaria sanguinalis
# From the text: as §2, §3
# galium = assay: Test C preemergence; type: in vivo, Galium aparine
# From the text: as §2, §3
# [3] = Preemergence, 1000 g ai/ha, 0 no effect, 100 complete control
# [4] = postemergence, 250 g ai/ha, scale 0 to 100 (0 no effect, 100 complete control)
# [5] = postemergence, 62 g ai/ha, scale 0 to 100, 0 no effect, 100 complete control
# [6] = postemergence, 125 g ai/ha, scale 0 to 100, 0 no effect, 100 complete control
# [7] = 250 g ai/ha, scale 0 to 100 (0 no effect, 100 complete control)
# [8] = 62 g ai/ha, scale 0 to 100, 0 no effect, 100 complete control
# [9] = 125 g ai/ha, scale 0 to 100, 0 no effect, 100 complete control
# [10] = Postemergence, 1000 g ai/ha, visual rating after approx. 10 days, 0 to 100 scale (0 no effect, 100 complete control)
# [11] = preemergence, 31 g ai/ha, scale 0 to 100 (0 no effect, 100 complete control), 13 to 15 days
# [12] = preemergence, 62 g ai/ha, 13 to 15 days, scale 0 to 100, 0 = no effect, 100 = complete control
# [13] = preemergence, 125 g ai/ha, scale 0 to 100, 0 is no effect, 100 is complete control
structure (smiles),measurement,setting,value
CCCNC(=O)c1cc(CC)n(Cc2cccc(OC(F)(F)F)c2)n1 [Compound 27],Morningglory plant response rating,morningglory [1]; [3],90
same,Chickweed plant response rating,"chickweed; Postemergence, 31 g ai/ha",20
same,"Plant response rating, Chickweed",chickweed; [4],75
same,"Plant response rating, Chickweed",chickweed; [5],20
same,"Plant response rating, Chickweed",chickweed; [6],40
same,Pigweed plant response rating,"pigweed; Postemergence, 31 g ai/ha",40
same,"Plant response rating, Pigweed",pigweed; [4],50
same,"Plant response rating, Pigweed",pigweed; [5],40
same,"Plant response rating, Pigweed",pigweed; [6],40
same,"Foxtail, Giant plant response rating","foxtail, giant; Postemergence, 31 g ai/ha",0
same,"Plant response rating, Foxtail, Giant","foxtail, giant; [4]",20
same,"Plant response rating, Foxtail, Giant","foxtail, giant; [5]",0
same,"Plant response rating, Foxtail, Giant","foxtail, giant; [6]",10
same,Morningglory plant response rating,"morningglory [2]; Postemergence, 31 g ai/ha",5
same,"Plant response rating, Morningglory",morningglory [2]; [4],75
same,"Plant response rating, Morningglory",morningglory [2]; [5],60
same,"Plant response rating, Morningglory",morningglory [2]; [6],60
same,"Plant response rating, Ragweed",ragweed; [7],10
same,"Plant response rating, Ragweed",ragweed; [8],0
same,"Plant response rating, Ragweed",ragweed; [9],5
same,Corn plant response rating,corn; [10],60
same,Wheat plant response rating,wheat,15
same,"Plant response rating, Wheat",wheat; [7],20
same,"Plant response rating, Wheat",wheat; [9],15
same,"Oat, Wild plant response rating","oat, wild; Postemergence, 31 g ai/ha",10
same,"Plant response rating, Oat, Wild","oat, wild; [4]",15
same,"Plant response rating, Oat, Wild","oat, wild; [5]",10
same,"Plant response rating, Oat, Wild","oat, wild; [6]",15
CCONC(=O)c1cc(CC)n(Cc2cccc(OC(F)(F)F)c2)n1 [Compound 72],"Plant response rating (scale of 0 to 100), Ryegrass, Italian","ryegrass, Italian; Preemergence, 250 g ai/ha",95
same,"Ryegrass, Italian plant response rating","ryegrass, Italian; [11]",40
same,"Plant response rating, Ryegrass, Italian","ryegrass, Italian; [12]",85
same,"Ryegrass, Italian plant response rating","ryegrass, Italian; [13]",85
same,Morningglory plant response rating,"morningglory [1]; Preemergence, 500 g ai/ha, 0 no effect, 100 complete control",90
same,Morningglory plant response rating,"morningglory [1]; preemergence, 125 g ai/ha, visual injury, approx. 10 days",60
same,Chickweed plant response rating,"chickweed; Postemergence, 31 g ai/ha",40
same,Chickweed plant response rating,"chickweed; postemergence, 62 g ai/ha",40
same,"Plant response rating, Chickweed",chickweed; [4],80
same,"Plant response rating, Chickweed",chickweed; [6],50
same,"Plant response rating (scale of 0 to 100), Crabgrass, Large","crabgrass, large; Preemergence, 250 g ai/ha",98
same,"Crabgrass, Large plant response rating","crabgrass, large; [11]",55
same,"Plant response rating, Crabgrass, Large","crabgrass, large; [12]",95
same,"Crabgrass, Large plant response rating","crabgrass, large; [13]",98
same,Pigweed plant response rating,"pigweed; Postemergence, 31 g ai/ha",45
same,Pigweed plant response rating,"pigweed; postemergence, 62 g ai/ha",45
same,"Plant response rating, Pigweed",pigweed; [4],65
same,"Plant response rating, Pigweed",pigweed; [6],65
same,"Foxtail, Giant plant response rating","foxtail, giant; Postemergence, 31 g ai/ha",5
same,"Foxtail, Giant plant response rating","foxtail, giant; postemergence, 62 g ai/ha",5
same,"Plant response rating, Foxtail, Giant","foxtail, giant; [4]",15
same,"Plant response rating, Foxtail, Giant","foxtail, giant; [6]",5
same,Morningglory plant response rating,"morningglory [2]; Postemergence, 31 g ai/ha",0
same,Morningglory plant response rating,"morningglory [2]; postemergence, 62 g ai/ha",35
same,"Plant response rating, Morningglory",morningglory [2]; [4],65
same,"Plant response rating, Morningglory",morningglory [2]; [6],60
same,Ragweed plant response rating,"ragweed; 62 g ai/ha, scale 0 to 100",5
same,"Plant response rating, Ragweed",ragweed; [7],35
same,"Plant response rating, Ragweed",ragweed; [9],20
same,Corn plant response rating,"corn; Postemergence, 500 g ai/ha, visual rating after approx. 10 days, 0 to 100 scale (0 no effect, 100 complete control)",80
same,Corn plant response rating,"corn; postemergence, 125 g ai/ha, about 10 days, visual rating on 0 to 100 scale (0 no effect, 100 complete control)",70
same,Wheat plant response rating,wheat,5
same,"Plant response rating, Wheat",wheat; [7],10
same,"Plant response rating, Wheat",wheat; [9],10
same,"Oat, Wild plant response rating","oat, wild; Postemergence, 31 g ai/ha",5
same,"Oat, Wild plant response rating","oat, wild; postemergence, 62 g ai/ha",5
same,"Plant response rating, Oat, Wild","oat, wild; [4]",35
same,"Plant response rating, Oat, Wild","oat, wild; [6]",20
same,"Plant response rating (scale of 0 to 100), Galium","galium; Preemergence, 250 g ai/ha",100
same,Galium plant response rating,galium; [11],70
same,"Plant response rating, Galium",galium; [12],98
same,Galium plant response rating,galium; [13],100
CCc1cc(C(=O)NCC(F)(F)F)nn1Cc1cccc(OC(F)(F)F)c1 [Compound 20],Morningglory plant response rating,morningglory [1]; [3],70
same,Chickweed plant response rating,"chickweed; Postemergence, 31 g ai/ha",45
same,"Plant response rating, Chickweed",chickweed; [4],75
same,"Plant response rating, Chickweed",chickweed; [5],45
same,"Plant response rating, Chickweed",chickweed; [6],75
same,Pigweed plant response rating,"pigweed; Postemergence, 31 g ai/ha",60
same,"Plant response rating, Pigweed",pigweed; [4],80
same,"Plant response rating, Pigweed",pigweed; [5],75
same,"Plant response rating, Pigweed",pigweed; [6],75
same,"Foxtail, Giant plant response rating","foxtail, giant; Postemergence, 31 g ai/ha",10
same,"Plant response rating, Foxtail, Giant","foxtail, giant; [4]",15
same,"Plant response rating, Foxtail, Giant","foxtail, giant; [5]",10
same,"Plant response rating, Foxtail, Giant","foxtail, giant; [6]",10
same,Morningglory plant response rating,"morningglory [2]; Postemergence, 31 g ai/ha",10
same,"Plant response rating, Morningglory",morningglory [2]; [4],70
same,"Plant response rating, Morningglory",morningglory [2]; [5],25
same,"Plant response rating, Morningglory",morningglory [2]; [6],60
same,"Plant response rating, Ragweed",ragweed; [7],25
same,"Plant response rating, Ragweed",ragweed; [8],15
same,"Plant response rating, Ragweed",ragweed; [9],15
same,Corn plant response rating,corn; [10],30
same,Wheat plant response rating,wheat,15
same,"Plant response rating, Wheat",wheat; [7],25
same,"Plant response rating, Wheat",wheat; [9],20
same,"Oat, Wild plant response rating","oat, wild; Postemergence, 31 g ai/ha",15
same,"Plant response rating, Oat, Wild","oat, wild; [4]",20
same,"Plant response rating, Oat, Wild","oat, wild; [5]",15
same,"Plant response rating, Oat, Wild","oat, wild; [6]",20

# From patent publication US20150105252A1, “SUBSTITUTED PYRAZOLES AS HERBICIDES” (E I DU PONT DE NEMOURS AND COMPANY, priority 2013, published 2015)
